Laboratory results from US7858349B2, “Anti-cancer compounds” (The Regents of the University of Colorado, priority 1999, dated 2010).
Read-outs that look alike come from different tables or passages of the source.

Key:
PC3 PC cells = experiment: Inhibition of PC3 tumor growth in vivo in nude mice; parameters: species or system athymic nude mice; key to PC3 In vivo % inhib.: an IC50 value of “0” represents no detectable anti-cancer activity for a drug in a given cell line; “Stim.” indicates the observation of a stimulatory activity on the growth of the cancer cell line; settings: percent inhibition of tumor growth in nude mice; prostate cancer; i.p. 5 mg/kg/every second day or 10 mg/kg/every fourth day
Method: Compounds having high in vitro cytotoxic activity were tested against implanted tumors in vivo. Athymic nude mice were implanted subcutaneously with suspensions (2 million SHP-77 SCLC cells, 1 million A549 NSCLC cells or 1.5 million PC3 PC cells) in Matrigel suspension. On the eighth day after tumor implantation groups of 5 mice bearing implants were injected intraperitoneally with the compounds being tested at 5 mg/kg/every second day or at 10 mg/kg/every fourth day; control animals were injected with an equal volume of isotonic saline. Less soluble compounds were initially dissolved in dimethyl sulfoxide (DMSO) and diluted with medium. In those cases the control injections contained the same concentration of DMSO. Tumor size was measured with a caliper three times per week. Tumor volume was calculated by the formula: Volume(cc)=3.14×(length)×(width)^2/6 At autopsy tumors were removed and weighed. Tumor inhibition was calculated on both weight and measurement basis. In each Table, an IC50 value of “0” represents no detectable anti-cancer activity for a drug in a given cell line and “Stim.” indicates the observation of a stimulatory activity on the growth of the cancer cell line.

SCLC strain SHP-77 = experiment: MTT assay for cell survival, SCLC SHP-77 in vitro; assay type: cell-based, human; settings: ED50 for killing of SCLC strain SHP-77 in vitro, 4 days, 0 = no detectable activity

Compound | PC3 In vivo % inhib. (PC3 PC cells) | IC50 (SCLC strain SHP-77; read-out: SHP-77 In vitro IC50) [µM] | IC50 (SCLC strain SHP-77; read-out: SCLC SHP-77 IC50) [µM]
O=C(C=Cc1c(F)c(F)c(F)c(F)c1F)NC(Cc1ccc(-c2ccccc2)cc1)C(=O)N1CCN(c2ncccn2)CC1 (centres unmarked) [Analog M-1260, F5c-Bip-Pmpz] | 60% | 10 | 
O=C(C=Cc1c(F)c(F)c(F)c(F)c1F)NC(Cc1ccc(-c2ccccc2)cc1)C(=O)N1CC2CC1CN2Cc1ccccc1 (centres unmarked) [Analog M-1268, F5c-Bip-Bdbh] | 36% | 3 | 
CC1(C)CC(NC(=O)C(Cc2ccc(OCc3c(Cl)cccc3Cl)cc2)NC(=O)COc2c(F)c(F)c(F)c(F)c2F)CC(C)(C)N1 (centres unmarked) [Analog M-1358, F5po-OC2Y-Atmp] | 30% |  | 4.1
CC1(C)CC(NC(=O)C(Cc2ccc(OCc3c(Cl)cccc3Cl)cc2)NC(=O)c2c(F)c(F)c(F)c(F)c2F)CC(C)(C)N1 (centres unmarked) [Analog M-1360, F5bz-OC2Y-Atmp] | Stim. |  | 4.1
CC1(C)CC(NC(=O)C(Cc2ccc(OCc3c(Cl)cccc3Cl)cc2)NC(=O)C2=CN3CCC2CC3)CC(C)(C)N1 (centres unmarked) [Analog M-1396, Dhq-OC2Y-Atmp] | 9% |  | 15
CC1(C)CC(NC(=O)C(Cc2ccc(OCc3c(Cl)cccc3Cl)cc2)NC(=O)C#Cc2ccccc2)CC(C)(C)N1 (centres unmarked) [Analog M-1398, Ppr-OC2Y-Atmp] | 65% |  | 8
CC1(C)CC(NC(=O)C(Cc2ccc(OCc3c(Cl)cccc3Cl)cc2)NC(=O)C(=Cc2ccccc2)c2ccccc2)CC(C)(C)N1 (centres unmarked) [Analog M-1400, Pcn-OC2Y-Atmp] | Stim. |  | 1.3
CC1(C)CC(NC(=O)C(Cc2ccc(OCc3c(Cl)cccc3Cl)cc2)NC(=O)C2C(C)(C)C2(C)C)CC(C)(C)N1 (centres unmarked) [Analog M-1406, Tmcc-OC2Y-Atmp] | 25% |  | 5.3
COc1cc(C(=O)NC(Cc2ccc(OCc3c(Cl)cccc3Cl)cc2)C(=O)NC2CC(C)(C)NC(C)(C)C2)cc(OC)c1OC (centres unmarked) [Analog M-1408, 3,4,5Tmb-OC2Y-Atmp] | Stim. |  | 8
CCCCCC=CC(=O)NC(Cc1ccc(OCc2c(Cl)cccc2Cl)cc1)C(=O)NC1CC(C)(C)NC(C)(C)C1 (centres unmarked) [Analog M-1412, 2Octe-OC2Y-Atmp] | 38% |  | 12
CC1(C)CC(NC(=O)C(Cc2ccc(OCc3c(Cl)cccc3Cl)cc2)NC(=O)C=Cc2ccc3c(c2)OCO3)CC(C)(C)N1 (centres unmarked) [Analog M-1414, 34Mdc-OC2Y-Atmp] | Stim. |  | 7.1
CC1(C)CC(NC(=O)C(Cc2ccc(OCc3c(Cl)cccc3Cl)cc2)NC(=O)C=Cc2cccs2)CC(C)(C)N1 (centres unmarked) [Analog M-1418, Thia-OC2Y-Atmp] | 9% |  | 8.6
CC1(C)CC(NC(=O)C(Cc2ccc(OCc3c(Cl)cccc3Cl)cc2)NC(=O)c2c(F)c(N)cc(F)c2F)CC(C)(C)N1 (centres unmarked) [Analog M-1420, Atfb-OC2Y-Atmp] | Stim. |  | 12
CC1(C)CC(NC(=O)C(Cc2ccc(OCc3c(Cl)cccc3Cl)cc2)NC(=O)C2(c3ccc(Cl)cc3)CC2)CC(C)(C)N1 (centres unmarked) [Analog M-1422, Cpcpc-OC2Y-Atmp] | 31% |  | 13
Cc1ccc(CSC(C)(C)C(NC(=O)C=Cc2c(F)c(F)c(F)c(F)c2F)C(=O)NC2CC(C)(C)NC(C)(C)C2)cc1 (centres unmarked) [Analog M-1430, F5c-Pen(Mbzl)-Atmp] | 50% |  | 6.1
CC1(C)CC(NC(=O)C(Cc2ccc(OCc3c(Cl)cccc3Cl)cc2)NC(=O)C2CCc3ccccc3C2)CC(C)(C)N1 (centres unmarked) [Analog M-1440, Th2n-OC2Y-Atmp] | 15% |  | 3.5
CCCCC/C=C\C/C=C\C/C=C\C/C=C\CCCC(=O)NC(Cc1ccc(OCc2c(Cl)cccc2Cl)cc1)C(=O)NC1CC(C)(C)NC(C)(C)C1 (centres unmarked) [Analog M-1442, Arac-OC2Y-Atmp] | 31% |  | 6.4
CC1(C)CC(NC(=O)C(Cc2ccc(OCc3c(Cl)cccc3Cl)cc2)NC(=O)/C=C/c2cc(C(F)(F)F)cc(C(F)(F)F)c2)CC(C)(C)N1 (centres unmarked) [Analog M-1444, Tf2c-OC2Y-Atmp] | 11% |  | 1.4
CC(C=CC1=C(C)CCCC1(C)C)=CC=CC(C)=CC(=O)NC(Cc1ccc(OCc2c(Cl)cccc2Cl)cc1)C(=O)NC1CC(C)(C)NC(C)(C)C1 (centres unmarked) [Analog M-1446, Ret-OC2Y-Atmp] | 60% |  | 6.7
CC1(C)CC(NC(=O)C(Cc2ccc(OCc3c(Cl)cccc3Cl)cc2)NC(=O)CC2Cc3ccccc3C2)CC(C)(C)N1 (centres unmarked) [Analog M-1448, 2Ina-OC2Y-Atmp] | 11% |  | 13

Compound | PC3 In vivo % inhib. (PC3 PC cells) | IC50 (SCLC strain SHP-77; read-out: SHP-77 In vitro IC50) [µM] | IC50 (SCLC strain SHP-77; read-out: SCLC SHP-77 IC50) [µM]
CC1(C)CC(NC(=O)C(Cc2ccc(OCc3c(Cl)cccc3Cl)cc2)NC(=O)c2ccccc2O)CC(C)(C)N1 (centres unmarked) [Analog M-1450, 2Hyb-OC2Y-Atmp] | Stim. |  | 13
CC1(C)CC(NC(=O)C(Cc2ccc(OCc3c(Cl)cccc3Cl)cc2)NC(=O)c2c(F)c(N)cc(F)c2F)CC(C)(C)N1 (centres unmarked) [Analog M-1452, Atfb-OC2Y-Atmp] | Stim. |  | 7.2
CC1(C)CC(NC(=O)C(Cc2ccc(OCc3c(Cl)cccc3Cl)cc2)NC(=O)C=Cc2ccc(C=O)cc2)CC(C)(C)N1 (centres unmarked) [Analog M-1456, Fcin-OC2Y-Atmp] | 17% |  | 4
CC1(C)CC(NC(=O)C(Cc2ccc(OCc3c(Cl)cccc3Cl)cc2)NC(=O)c2ccc(S(N)(=O)=O)cc2)CC(C)(C)N1 (centres unmarked) [Analog M-1458, Sab-OC2Y-Atmp] | Stim. |  | > 60
CC1(C)CC(NC(=O)C(Cc2ccc(OCc3c(Cl)cccc3Cl)cc2)NC(=O)C=Cc2ccc(B(O)O)cc2)CC(C)(C)N1 (centres unmarked) [Analog M-1460, Bcin-OC2Y-Atmp] | 38% |  | 23
CC1(C)CC(NC(=O)C(Cc2ccc(OCc3c(Cl)cccc3Cl)cc2)NC(=O)C2CC(=O)NC(=O)N2)CC(C)(C)N1 (centres unmarked) [Analog M-1462, Hor-OC2Y-Atmp] | 7% |  | > 60
CC(C=CC1(O)C(C)=CC(=O)CC1(C)C)=CC(=O)NC(Cc1ccc(OCc2c(Cl)cccc2Cl)cc1)C(=O)NC1CC(C)(C)NC(C)(C)C1 (centres unmarked) [Analog M-1464, Aba-OC2Y-Atmp] | 14% |  | 14
CC1(C)CC(NC(=O)C(Cc2ccc(C#N)cc2)NC(=O)CCCCC2SCC3NC(=O)NC32)CC(C)(C)N1 (centres unmarked) [Analog M-1466, Biot-PCNF-Atmp] | 29% |  | > 60
Cc1ccc(CSC(C)(C)C(NC(=O)CCCCC2SCC3NC(=O)NC32)C(=O)NC2CC(C)(C)NC(C)(C)C2)cc1 (centres unmarked) [Analog M-1468, Biot-Pen(Mbzl)-Atmp] | 46% |  | > 60
Cc1ccc(CSC(C)(C)C(NC(=O)CCCc2c[nH]c3ccccc23)C(=O)NC2CC(C)(C)NC(C)(C)C2)cc1 (centres unmarked) [Analog M-1474, 3Ibu-Pen(Mbzl)-Atmp] | Stim. |  | 7.8
CC1(C)CC(NC(=O)C(Cc2ccc(OCc3c(Cl)cccc3Cl)cc2)NC(=O)c2ccc(C(F)(F)F)cc2)CC(C)(C)N1 (centres unmarked) [Analog M-1484, Ptmb-OC2Y-Atmp] | Stim. |  | 1.8
Cc1ccc(CSC(C)(C)C(NC(=O)COc2c(F)c(F)c(F)c(F)c2F)C(=O)NC2CC(C)(C)NC(C)(C)C2)cc1 (centres unmarked) [Analog M-1486, F5po-Pen(Mbzl)-Atmp] | 21% |  | 4.2
Cc1ccc(CSC(C)(C)C(NC(=O)C23CC4CC(CC(C4)C2)C3)C(=O)NC2CC(C)(C)NC(C)(C)C2)cc1 (centres unmarked) [Analog M-1492, Aca-Pen(Mbzl)-Atmp] | 15% |  | 3.4
CC1(C)CC(NC(=O)C(Cc2ccc(OCc3c(Cl)cccc3Cl)cc2)NC(=O)C23CC4CC(CC(C4)C2)C3)CC(C)(C)N1 (centres unmarked) [Analog M-1494, Aca-OC2Y-Atmp] | 40% |  | 1.6
CC1(C)CC(NC(=O)[C@H](Cc2ccc(C#N)cc2)NC(=O)C23CC4CC(CC(C4)C2)C3)CC(C)(C)N1 [Analog M-1496, Aca-PCNF-Atmp] | 2% |  | > 60
Cc1ccc(CSC(C)(C)C(NC(=O)CCCc2ccc(N(CCCl)CCCl)cc2)C(=O)NC2CC(C)(C)NC(C)(C)C2)cc1 (centres unmarked) [Analog M-1498, Chl-Pen(Mbzl)-Atmp] | 20% |  | 3.5
Cc1ccc(CSC(C)(C)C(NC(=O)C=Cc2cc(F)cc(F)c2F)C(=O)NC2CC(C)(C)NC(C)(C)C2)cc1 (centres unmarked) [Analog M-1502, F3c-Pen(Mbzl)-Atmp] | 11% |  | 3.4
COc1ccc2cc(C(C)C(=O)NC(C(=O)NC3CC(C)(C)NC(C)(C)C3)C(C)(C)SCc3ccc(C)cc3)ccc2c1 (centres unmarked) [Analog M-1506, Napr-Pen(Mbzl)-Atmp] | 13% |  | 4.7
COc1ccc2cc(C(C)C(=O)NC(Cc3ccc(C#N)cc3)C(=O)NC3CC(C)(C)NC(C)(C)C3)ccc2c1 (centres unmarked) [Analog M-1508, Napr-PCNF-Atmp] | 45% |  | 23
Cc1ccc(CSC(C)(C)C(NC(=O)C(C)(c2ccccc2)c2ccccc2)C(=O)NC2CC(C)(C)NC(C)(C)C2)cc1 (centres unmarked) [Analog M-1510, 22Dp-Pen(Mbzl)-Atmp] | Stim. |  | 4.2
